# Reference: patent publication US20260324644A1, “HERBICIDE COMPOSITION AND A METHOD FOR BURNDOWN APPLICATION” (UPL Mauritius Limited, priority 2022, published 2026)
# Like-named read-outs stand apart in the source and are kept apart here.
# What was measured:
# plants = conditions: background statement; cited from earlier work
# [1] = test system: glutamine synthetase (GS); conditions: role: inhibitor, GS of bacteria and plants, cited from earlier work
# Euphorbia geniculate = test: Greenhouse trial, burndown (non-crop) weed control, Euphorbia geniculate; assay type: in vivo; conditions: for % Control after 10 DAA: Example 1; for % Control: 495 g a.i./ha
# Method: (§1) Methodology: Greenhouse trials were conducted to evaluate the efficacy of the L-glufosinate on broad spectrum weeds at non-crop stage (burndown application).
# (§2) The soil used was medium black soil. All treatments were in 3 replications per treatment with a spray volume of about 150 L/ha.
# (§3) The percentage efficacy was calculated after 10 days of application (DAA). The target weeds were Amaranthus viridis, E. geniculate, P. oleracea, Brachiaria spp. and the concentration of the herbicide and the results are recorded in Table 1.
# (§4) The percentage efficacy was calculated after 10 and 15 days of application (DAA). The herbicidal composition used was L-glufosinate (SL) at 150 g a.i./L. The application rate was 495 g a.i./ha. The target weeds were Amaranthus virids, A. spinosus, C. Album, E. geniculate, P. oleracea, P. hysterophrous, Brachiaria spp., D. retroflexa, E. colonum and the concentration of the herbicide and the results are recorded in Table 2.
# (§5) The percentage efficacy was calculated after 10 and 15 days of application (DAA). The herbicidal composition used was L-glufosinate (SL) at 150 g a.i./L and 280 g a.i./L. The application rate was 495 g a.i./ha. The target weeds were Amaranthus viridis, Amaranthus spinosus, Acalypha indica, Digera arvensis, Euphorbia geniculate, Portulaca oleracea, Parthenium hysterophrous, Phyllanthus maderaspatensis and the concentration of the herbicide and the results are recorded in Table 3.
# Portulaca oleracea = test: Greenhouse trial, burndown (non-crop) weed control, Portulaca oleracea; assay type: in vivo; conditions: 495 g a.i./ha
# Method: as §1, §2, §4, §5
# [2] = test system: Phyllanthus maderaspatensis; test: Greenhouse trial, burndown (non-crop) weed control, Phyllanthus maderaspatensis; assay type: in vivo; conditions: 495 g a.i./ha
# Method: as §1, §2, §5
# Digera arvensis = test: Greenhouse trial, burndown (non-crop) weed control, Digera arvensis; assay type: in vivo; conditions: 495 g a.i./ha
# Method: as §1, §2, §5
# Parthenium hysterophrous = test: Greenhouse trial, burndown (non-crop) weed control, Parthenium hysterophrous; assay type: in vivo; conditions: 495 g a.i./ha
# Method: as §1, §2, §4, §5
# Amaranthus spinosus = test: Greenhouse trial, burndown (non-crop) weed control, Amaranthus spinosus; assay type: in vivo; conditions: 495 g a.i./ha
# Method: as §1, §2, §4, §5
# Brachiaria spp. = test: Greenhouse trial, burndown (non-crop) weed control, Brachiaria spp.; assay type: in vivo; conditions: for % Control: 495 g a.i./ha
# Method: as §1, §2, §3, §4
# (§6) The percentage efficacy was calculated after 10 and 15 days of application (DAA). The herbicidal composition used was L-glufosinate (SL) at 150 g a.i./L and 280 g a.i./L. The application rate was 495 g a.i./ha. The target weeds were Brachiaria spp., Dinebra retroflexa, Echonochloa colonum and the concentration of the herbicide and the results are recorded in Table 4.
# Acalypha indica = test: Greenhouse trial, burndown (non-crop) weed control, Acalypha indica; assay type: in vivo; conditions: 495 g a.i./ha
# Method: as §1, §2, §5
# Amaranthus viridis = test: Greenhouse trial, burndown (non-crop) weed control, Amaranthus viridis; assay type: in vivo; conditions: for % Control: 495 g a.i./ha
# Method: as §1, §2, §3, §4, §5
# E. colonum = test: Greenhouse trial, burndown (non-crop) weed control, E. colonum; assay type: in vivo; conditions: Example 2, SL 150 g a.i./L, 495 g a.i./ha
# Method: as §1, §2, §4
# C. Album = test: Greenhouse trial, burndown (non-crop) weed control, C. Album; assay type: in vivo; conditions: Example 2, SL 150 g a.i./L, 495 g a.i./ha
# Method: as §1, §2, §4
# Dinebra retroflexa = test: Greenhouse trial, burndown (non-crop) weed control, Dinebra retroflexa; assay type: in vivo; conditions: 495 g a.i./ha
# Method: as §1, §2, §4, §6
# [3] = Example 3, SL 150 g a.i./L, 10 DAA
# [4] = Example 3, SL 150 g a.i./L, 15 DAA
# [5] = Example 3, SL 280 g a.i./L, 10 DAA
# [6] = Example 3, SL 280 g a.i./L, 15 DAA
# [7] = Example 1, L-glufosinate (SL) 200 g a.i./L, rate 150 g a.i./ha, 10 DAA
# [8] = Example 1, L-glufosinate (SL) 200 g a.i./L, rate 165 g a.i./ha, 10 DAA
# [9] = Example 1, L-glufosinate (SL) 200 g a.i./L, rate 200 g a.i./ha, 10 DAA
# [10] = Example 1, L-glufosinate (SL) 200 g a.i./L, rate 220 g a.i./ha, 10 DAA
# [11] = Example 1, L-glufosinate (SL) 280 g a.i./L, rate 150 g a.i./ha, 10 DAA
# [12] = Example 1, L-glufosinate (SL) 280 g a.i./L, rate 165 g a.i./ha, 10 DAA
# [13] = Example 1, L-glufosinate (SL) 280 g a.i./L, rate 200 g a.i./ha, 10 DAA
# [14] = Example 1, L-glufosinate (SL) 280 g a.i./L, rate 220 g a.i./ha, 10 DAA
# [15] = Example 2, SL 150 g a.i./L, 10 DAA
# [16] = Example 2, SL 150 g a.i./L, 15 DAA
smiles,measurement,setting,value
CP(=O)(O)CC[C@@H](N)C(=O)O [D-glufosinate],herbicidal activity,plants,not herbicidally active
same,inhibition of glutamine synthetase (GS),[1],not a GS inhibitor
"CP(=O)(O)CC[C@H](N)C(=O)O.N [L-glufosinate, (S)-2-amino-4-(hydroxy(methyl)phosphonoyl)butanoic acid]",% Control after 10 DAA,"Euphorbia geniculate; L-glufosinate (SL) 200 g a.i./L, rate 150 g a.i./ha, 10 DAA, E. geniculate",93%
same,% Control after 10 DAA,"Euphorbia geniculate; L-glufosinate (SL) 200 g a.i./L, rate 165 g a.i./ha, 10 DAA, E. geniculate",95%
same,% Control after 10 DAA,"Euphorbia geniculate; L-glufosinate (SL) 200 g a.i./L, rate 200 g a.i./ha, 10 DAA, E. geniculate",97%
same,% Control after 10 DAA,"Euphorbia geniculate; L-glufosinate (SL) 200 g a.i./L, rate 220 g a.i./ha, 10 DAA, E. geniculate",93%
same,% Control after 10 DAA,"Euphorbia geniculate; L-glufosinate (SL) 280 g a.i./L, rate 150 g a.i./ha, 10 DAA, E. geniculate",92%
same,% Control after 10 DAA,"Euphorbia geniculate; L-glufosinate (SL) 280 g a.i./L, rate 165 g a.i./ha, 10 DAA, E. geniculate",90%
same,% Control after 10 DAA,"Euphorbia geniculate; L-glufosinate (SL) 280 g a.i./L, rate 200 g a.i./ha, 10 DAA, E. geniculate",95%
same,% Control after 10 DAA,"Euphorbia geniculate; L-glufosinate (SL) 280 g a.i./L, rate 220 g a.i./ha, 10 DAA, E. geniculate",93%
same,% Control,"Euphorbia geniculate; Example 2, SL 150 g a.i./L, 10 DAA, E. geniculate",100%
same,% Control,"Euphorbia geniculate; Example 2, SL 150 g a.i./L, 15 DAA, E. geniculate",100%
same,% Control,"Euphorbia geniculate; Example 3, SL 150 g a.i./L, 10 DAA, Euphorbia geniculate",80%
same,% Control,"Euphorbia geniculate; Example 3, SL 150 g a.i./L, 15 DAA, Euphorbia geniculate",100%
same,% Control,"Euphorbia geniculate; Example 3, SL 280 g a.i./L, 10 DAA, Euphorbia geniculate",90%
same,% Control,"Euphorbia geniculate; Example 3, SL 280 g a.i./L, 15 DAA, Euphorbia geniculate",100%
same,% Control,"Portulaca oleracea; Example 2, SL 150 g a.i./L, 10 DAA, P. oleracea",88%
same,% Control,"Portulaca oleracea; Example 2, SL 150 g a.i./L, 15 DAA, P. oleracea",82%
same,% Control,"Portulaca oleracea; Example 3, SL 150 g a.i./L, 10 DAA, Portulaca oleracea",100%
same,% Control,"Portulaca oleracea; Example 3, SL 150 g a.i./L, 15 DAA, Portulaca oleracea",100%
same,% Control,"Portulaca oleracea; Example 3, SL 280 g a.i./L, 10 DAA, Portulaca oleracea",100%
same,% Control,"Portulaca oleracea; Example 3, SL 280 g a.i./L, 15 DAA, Portulaca oleracea",100%
same,% Control,[2]; [3],93%
same,% Control,[2]; [4],100%
same,% Control,[2]; [5],97%
same,% Control,[2]; [6],97%
same,% Control,Digera arvensis; [3],100%
same,% Control,Digera arvensis; [4],100%
same,% Control,Digera arvensis; [5],100%
same,% Control,Digera arvensis; [6],100%
same,herbicidal activity,plants,herbicidally active
same,% Control,"Parthenium hysterophrous; Example 2, SL 150 g a.i./L, 10 DAA, P. hysterophrous",100%
same,% Control,"Parthenium hysterophrous; Example 2, SL 150 g a.i./L, 15 DAA, P. hysterophrous",100%
same,% Control,"Parthenium hysterophrous; Example 3, SL 150 g a.i./L, 10 DAA, Parthenium hysterophrous",93%
same,% Control,"Parthenium hysterophrous; Example 3, SL 150 g a.i./L, 15 DAA, Parthenium hysterophrous",93%
same,% Control,"Parthenium hysterophrous; Example 3, SL 280 g a.i./L, 10 DAA, Parthenium hysterophrous",97%
same,% Control,"Parthenium hysterophrous; Example 3, SL 280 g a.i./L, 15 DAA, Parthenium hysterophrous",97%
same,% Control,"Amaranthus spinosus; Example 2, SL 150 g a.i./L, 10 DAA, A. spinosus",100%
same,% Control,"Amaranthus spinosus; Example 2, SL 150 g a.i./L, 15 DAA, A. spinosus",100%
same,% Control,"Amaranthus spinosus; Example 3, SL 150 g a.i./L, 10 DAA, Amaranthus spinosus",100%
same,% Control,"Amaranthus spinosus; Example 3, SL 150 g a.i./L, 15 DAA, Amaranthus spinosus",100%
same,% Control,"Amaranthus spinosus; Example 3, SL 280 g a.i./L, 10 DAA, Amaranthus spinosus",100%
same,% Control,"Amaranthus spinosus; Example 3, SL 280 g a.i./L, 15 DAA, Amaranthus spinosus",100%
same,% Control after 10 DAA,Brachiaria spp.; [7],100%
same,% Control after 10 DAA,Brachiaria spp.; [8],100%
same,% Control after 10 DAA,Brachiaria spp.; [9],100%
same,% Control after 10 DAA,Brachiaria spp.; [10],100%
same,% Control after 10 DAA,Brachiaria spp.; [11],100%
same,% Control after 10 DAA,Brachiaria spp.; [12],100%
same,% Control after 10 DAA,Brachiaria spp.; [13],100%
same,% Control after 10 DAA,Brachiaria spp.; [14],100%
same,% Control,Brachiaria spp.; [15],93%
same,% Control,Brachiaria spp.; [16],100%
same,% Control,"Brachiaria spp.; Example 4, SL 150 g a.i./L, 10 DAA",100%
same,% Control,"Brachiaria spp.; Example 4, SL 150 g a.i./L, 15 DAA",100%
same,% Control,"Brachiaria spp.; Example 4, SL 280 g a.i./L, 10 DAA",100%
same,% Control,"Brachiaria spp.; Example 4, SL 280 g a.i./L, 15 DAA",100%
same,% Control,Acalypha indica; [3],80%
same,% Control,Acalypha indica; [4],100%
same,% Control,Acalypha indica; [5],87%
same,% Control,Acalypha indica; [6],100%
same,inhibition of glutamine synthetase (GS),[1]; listed as L-isomer of glufosinate,competitive inhibitor
same,inhibition of glutamine synthetase (GS),[1]; listed as L-isomer,only the L-isomer inhibits GS
same,% Control after 10 DAA,Amaranthus viridis; [7],100%
same,% Control after 10 DAA,Amaranthus viridis; [8],100%
same,% Control after 10 DAA,Amaranthus viridis; [9],100%
same,% Control after 10 DAA,Amaranthus viridis; [10],100%
same,% Control after 10 DAA,Amaranthus viridis; [11],100%
same,% Control after 10 DAA,Amaranthus viridis; [12],100%
same,% Control after 10 DAA,Amaranthus viridis; [13],100%
same,% Control after 10 DAA,Amaranthus viridis; [14],100%
same,% Control,Amaranthus viridis; [15],100%
same,% Control,Amaranthus viridis; [16],100%
same,% Control,Amaranthus viridis; [3],100%
same,% Control,Amaranthus viridis; [4],100%
same,% Control,Amaranthus viridis; [5],100%
same,% Control,Amaranthus viridis; [6],100%
same,% Control,E. colonum; 10 DAA,90%
same,% Control,E. colonum; 15 DAA,90%
same,% Control,C. Album; 10 DAA,100%
same,% Control,C. Album; 15 DAA,100%
same,% Control,"Dinebra retroflexa; Example 2, SL 150 g a.i./L, 10 DAA, D. retroflexa",100%
same,% Control,"Dinebra retroflexa; Example 2, SL 150 g a.i./L, 15 DAA, D. retroflexa",100%
same,% Control,"Dinebra retroflexa; Example 4, SL 150 g a.i./L, 10 DAA, Dinebra retroflexa",83%
same,% Control,"Dinebra retroflexa; Example 4, SL 150 g a.i./L, 15 DAA, Dinebra retroflexa",70%
same,% Control,"Dinebra retroflexa; Example 4, SL 280 g a.i./L, 10 DAA, Dinebra retroflexa",83%
same,% Control,"Dinebra retroflexa; Example 4, SL 280 g a.i./L, 15 DAA, Dinebra retroflexa",70%
